Laboratory results as given in publication PMC13064811, “The Role of Disulfide Bonds in the GluN1 Subunit in the Early Trafficking and Functional Properties of GluN1/GluN2 and GluN1/GluN3 NMDA Receptors” (The Journal of Neuroscience, 2026).
Read-outs that look alike come from different tables or passages of the source.

Assays:
[1] = test system: YFP-hGluN1/hGluN2B receptors; assay type: cell-based, rat
[2] = test system: YFP-hGluN1/hGluN2A receptors; assay type: cell-based, rat
[3] = target: GluN1-C744Y/GluN2A receptors; details: cited from earlier work
YFP-hGluN1-1a/hGluN2A = YFP-hGluN1-1a/hGluN2A (Homo sapiens, UniProt Q05586+Q12879); assay type: cell-based
GluN1-C455S/GluN2B = details: cited from earlier work
[4] = target: YFP-hGluN1-1a-C744Y/hGluN2A (Homo sapiens, UniProt Q05586+Q12879, C744Y); assay type: cell-based
YFP-hGluN1-1a/hGluN2B = YFP-hGluN1-1a/hGluN2B (Homo sapiens, UniProt Q05586+Q13224); assay type: cell-based
GluN1-C436S/GluN2B = details: cited from earlier work
GluN1-C454S/GluN2B = details: cited from earlier work
[5] = target: YFP-hGluN1-1a-C744Y/hGluN2B (Homo sapiens, UniProt Q05586+Q13224, C744Y); assay type: cell-based
[6] = test system: YFP-hGluN1-1a-C744Y/hGluN3A
[7] = test system: YFP-GluN1-1a-C744S-C798S/GluN3A
[8] = target: GluN1-C79S-C308S/GluN2A receptors; details: read-out: EC50 value for glycine; cited from earlier work
hGluN1-4a-C744Y/hGluN2B = target: T1, hGluN1-4a-C744Y/hGluN2B (Homo sapiens, UniProt Q05586+Q13224, C744Y); assay type: cell-based; details: pretreatment with 4 mM DTT, 2 min
T1 construct: GluN1-4a (hGluN1-4a; NP_000823.4); GluN2B (hGluN2B; NP_000825.2); expressed in transfected cells; host or cells: HEK293T

hGluN1-4a/hGluN2B = target: T2, hGluN1-4a/hGluN2B (Homo sapiens, UniProt Q05586+Q13224); assay type: cell-based; details: pretreatment with 4 mM DTT or 0.5 mM DTNB, each for 2 min
T2 construct: GluN1-4a (hGluN1-4a; NP_000823.4); GluN2B (hGluN2B; NP_000825.2); expressed in transfected cells; host or cells: HEK293T

hGluN1-4a/hGluN2A = target: T3, hGluN1-4a/hGluN2A (Homo sapiens, UniProt Q05586+Q12879); assay type: cell-based; details: pretreatment with 4 mM DTT or 0.5 mM DTNB, each for 2 min
T3 construct: GluN1-4a (hGluN1-4a; NP_000823.4); GluN2A (hGluN2A; NP_001127879.1); expressed in transfected cells; host or cells: HEK293T

hGluN1-4a-C744Y/hGluN2A = target: T4, hGluN1-4a-C744Y/hGluN2A (Homo sapiens, UniProt Q05586+Q12879, C744Y); assay type: cell-based; details: pretreatment with 4 mM DTT or 0.5 mM DTNB, each for 2 min
T4 construct: GluN1-4a (hGluN1-4a; NP_000823.4); GluN2A (hGluN2A; NP_001127879.1); expressed in transfected cells; host or cells: HEK293T

Chain of YFP-hGluN1-1a/hGluN2A (Q12879 23-1464, other chains not shown): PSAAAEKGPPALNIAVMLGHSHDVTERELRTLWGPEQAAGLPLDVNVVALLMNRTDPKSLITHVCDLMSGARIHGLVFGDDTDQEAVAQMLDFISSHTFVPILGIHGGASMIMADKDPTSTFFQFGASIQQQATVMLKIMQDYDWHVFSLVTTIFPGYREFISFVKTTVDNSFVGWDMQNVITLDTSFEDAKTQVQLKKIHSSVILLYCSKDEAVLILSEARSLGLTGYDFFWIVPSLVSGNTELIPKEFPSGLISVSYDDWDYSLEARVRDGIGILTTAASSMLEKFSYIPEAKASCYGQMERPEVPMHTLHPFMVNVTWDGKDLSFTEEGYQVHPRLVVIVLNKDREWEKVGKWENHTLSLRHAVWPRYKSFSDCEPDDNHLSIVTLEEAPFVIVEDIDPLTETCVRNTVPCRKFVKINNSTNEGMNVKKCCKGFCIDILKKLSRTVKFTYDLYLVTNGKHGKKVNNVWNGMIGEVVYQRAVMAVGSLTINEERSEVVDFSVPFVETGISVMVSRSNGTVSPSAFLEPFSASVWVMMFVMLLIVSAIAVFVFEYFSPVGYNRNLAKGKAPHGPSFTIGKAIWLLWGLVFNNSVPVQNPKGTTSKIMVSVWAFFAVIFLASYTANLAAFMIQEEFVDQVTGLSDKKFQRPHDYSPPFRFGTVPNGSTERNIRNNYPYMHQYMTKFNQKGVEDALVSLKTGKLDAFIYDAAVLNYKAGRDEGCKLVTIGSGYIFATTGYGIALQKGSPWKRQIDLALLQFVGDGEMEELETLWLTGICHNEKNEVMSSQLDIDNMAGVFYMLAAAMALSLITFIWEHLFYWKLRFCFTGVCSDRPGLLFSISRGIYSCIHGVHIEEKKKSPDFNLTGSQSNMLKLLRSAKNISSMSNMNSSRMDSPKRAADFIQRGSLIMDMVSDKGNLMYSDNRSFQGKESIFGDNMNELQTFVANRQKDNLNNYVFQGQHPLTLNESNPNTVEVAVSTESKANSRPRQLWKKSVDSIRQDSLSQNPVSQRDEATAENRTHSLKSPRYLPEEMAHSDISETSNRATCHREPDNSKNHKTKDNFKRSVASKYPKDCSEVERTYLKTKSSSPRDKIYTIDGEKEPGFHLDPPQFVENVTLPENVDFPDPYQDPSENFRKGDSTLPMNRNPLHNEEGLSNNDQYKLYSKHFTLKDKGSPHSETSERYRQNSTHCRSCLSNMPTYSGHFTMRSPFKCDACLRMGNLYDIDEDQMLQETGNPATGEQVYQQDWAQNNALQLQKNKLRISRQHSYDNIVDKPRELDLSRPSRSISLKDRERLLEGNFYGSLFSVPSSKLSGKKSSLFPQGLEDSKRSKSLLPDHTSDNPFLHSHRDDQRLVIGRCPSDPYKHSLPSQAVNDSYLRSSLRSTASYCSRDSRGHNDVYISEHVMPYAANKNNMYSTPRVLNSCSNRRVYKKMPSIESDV
Chain of YFP-hGluN1-1a-C744Y/hGluN2A (Q12879 23-1464, other chains not shown): as above
Chain of YFP-hGluN1-1a-C744Y/hGluN2B (Q13224 27-1484, other chains not shown): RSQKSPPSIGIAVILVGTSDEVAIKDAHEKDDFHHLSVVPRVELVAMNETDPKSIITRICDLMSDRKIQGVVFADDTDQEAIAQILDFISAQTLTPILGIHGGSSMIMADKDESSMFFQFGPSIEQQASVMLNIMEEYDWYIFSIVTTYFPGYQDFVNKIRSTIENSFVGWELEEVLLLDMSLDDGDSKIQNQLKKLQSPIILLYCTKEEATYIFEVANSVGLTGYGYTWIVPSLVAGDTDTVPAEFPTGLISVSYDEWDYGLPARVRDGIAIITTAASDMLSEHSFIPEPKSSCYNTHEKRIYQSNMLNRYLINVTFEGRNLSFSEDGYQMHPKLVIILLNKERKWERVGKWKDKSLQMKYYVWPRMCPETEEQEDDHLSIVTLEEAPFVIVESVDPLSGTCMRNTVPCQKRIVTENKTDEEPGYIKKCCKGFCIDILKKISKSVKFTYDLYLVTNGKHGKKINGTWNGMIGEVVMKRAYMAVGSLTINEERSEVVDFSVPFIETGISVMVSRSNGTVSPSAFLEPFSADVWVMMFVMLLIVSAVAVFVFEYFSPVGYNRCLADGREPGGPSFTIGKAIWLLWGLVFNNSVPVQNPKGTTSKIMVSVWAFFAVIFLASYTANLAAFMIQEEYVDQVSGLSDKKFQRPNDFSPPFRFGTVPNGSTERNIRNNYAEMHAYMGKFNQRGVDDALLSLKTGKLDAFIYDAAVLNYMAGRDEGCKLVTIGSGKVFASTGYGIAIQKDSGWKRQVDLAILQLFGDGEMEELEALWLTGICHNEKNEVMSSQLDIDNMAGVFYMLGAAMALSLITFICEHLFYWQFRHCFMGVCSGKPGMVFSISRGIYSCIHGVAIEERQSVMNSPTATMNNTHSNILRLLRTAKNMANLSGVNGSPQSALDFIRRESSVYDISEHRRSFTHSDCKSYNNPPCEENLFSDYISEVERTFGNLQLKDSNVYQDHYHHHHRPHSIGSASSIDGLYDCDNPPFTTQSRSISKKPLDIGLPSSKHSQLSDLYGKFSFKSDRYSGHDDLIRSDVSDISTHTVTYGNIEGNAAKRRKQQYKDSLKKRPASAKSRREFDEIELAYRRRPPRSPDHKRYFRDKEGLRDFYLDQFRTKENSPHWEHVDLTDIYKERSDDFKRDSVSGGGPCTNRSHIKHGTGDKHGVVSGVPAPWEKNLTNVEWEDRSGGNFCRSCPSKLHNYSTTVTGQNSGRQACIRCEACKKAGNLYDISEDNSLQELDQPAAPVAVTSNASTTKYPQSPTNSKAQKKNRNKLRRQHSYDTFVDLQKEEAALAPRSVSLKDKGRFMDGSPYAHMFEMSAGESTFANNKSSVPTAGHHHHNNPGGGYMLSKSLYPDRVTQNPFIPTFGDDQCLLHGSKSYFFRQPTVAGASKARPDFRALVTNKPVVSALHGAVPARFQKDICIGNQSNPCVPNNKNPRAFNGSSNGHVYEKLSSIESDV

SMILES: CN1CCc2cc3c(cc2[C@H]1[C@@H]1OC(=O)c2c1ccc1c2OCO1)OCO3 [bicuculline]
- relative surface expression [1]: increased relative surface expression
- relative surface expression [2]: no alterations in the relative surface expression levels

SMILES: N[C@@H](CCC(=O)O)C(=O)O [L-glutamate]
- EC50 ([3]; read-out: EC50 value for L-glutamate): 1.1 µM
- L-glutamate h (Hill coefficient) (YFP-hGluN1-1a/hGluN2A; YFP-hGluN1-1a/hGluN2A, −60 mV): 1.36 ± 0.10
- EC50 (GluN1-C455S/GluN2B; read-out: EC50 L-glutamate): 3 µM
- L-glutamate h (Hill coefficient) ([4]; YFP-hGluN1-1a-C744Y/hGluN2A, −60 mV): 1.33 ± 0.09
- L-glutamate h (Hill coefficient) (YFP-hGluN1-1a/hGluN2B; YFP-hGluN1-1a/hGluN2B, −60 mV): 1.06 ± 0.06
- EC50 (GluN1-C436S/GluN2B; read-out: EC50 L-glutamate): 3 µM
- EC50 (GluN1-C454S/GluN2B; read-out: EC50 L-glutamate): 1.7 µM
- L-glutamate h (Hill coefficient) ([5]; YFP-hGluN1-1a-C744Y/hGluN2B, −60 mV): 0.89 ± 0.05

SMILES: NCC(=O)O [glycine]
- EC50 ([3]; read-out: EC50 value for glycine): 0.7 µM
- Glycine h (Hill coefficient) (YFP-hGluN1-1a/hGluN2A): 1.46 ± 0.07
- EC50 (YFP-hGluN1-1a/hGluN2A; read-out: Glycine EC50): 2.91 ± 0.29 µM
- EC50 (GluN1-C455S/GluN2B; read-out: EC50 glycine): 0.25 µM
- Glycine h (Hill coefficient) (YFP-hGluN1-1a/hGluN3A): 0.61 ± 0.02
- EC50 (YFP-hGluN1-1a/hGluN3A; read-out: Glycine EC50): 70.5 ± 10.7 µM
- Glycine h (Hill coefficient) [6]: 0.75 ± 0.03
- EC50 ([6]; read-out: Glycine EC50): 368 ± 51 µM
- h (Hill coefficient), glycine [7]: 0.88 ± 0.09
- EC50 ([7]; read-out: Glycine EC50): 213 ± 30.8 µM
- Glycine h (Hill coefficient) [4]: 1.47 ± 0.08
- EC50 ([4]; read-out: Glycine EC50): 3.01 ± 0.41 µM
- Glycine h (Hill coefficient) (YFP-hGluN1-1a/hGluN2B): 0.83 ± 0.06
- EC50 (GluN1-C436S/GluN2B; read-out: EC50 glycine): 0.72 µM
- EC50 [8]: 2.62 µM
- EC50 (GluN1-C454S/GluN2B; read-out: EC50 glycine): 0.73 µM
- Glycine h (Hill coefficient) [5]: 0.80 ± 0.03
- EC50 ([5]; read-out: Glycine EC50): 0.59 ± 0.08 µM
- h (Hill coefficient), glycine (YFP-GluN1-1a/GluN3A): 1.26 ± 0.15
- EC50 (YFP-GluN1-1a/GluN3A; read-out: Glycine EC50): 52.3 ± 13 µM

SMILES: O[C@@H](CS)[C@@H](O)CS (racemic) [DTT, dithiothreitol]
- effect on peak current amplitudes (redox sensitivity) (hGluN1-4a-C744Y/hGluN2B): did not affect
- effect on peak current amplitudes (redox sensitivity) (hGluN1-4a/hGluN2B): reduced the peak current amplitudes
- effect on peak current amplitudes (redox sensitivity) (hGluN1-4a/hGluN2A): neither condition (DTT or DTNB) altered the peak current amplitudes
- effect on peak current amplitudes (redox sensitivity) (hGluN1-4a-C744Y/hGluN2A): neither condition (DTT or DTNB) altered the peak current amplitudes

SMILES: NC1=N[C@H](O)[C@H]2[C@H]3O[C@]4(O)O[C@@H]([C@@H](O)[C@@]2(N1)[C@@H]4O)[C@]3(O)CO [TTX, tetrodotoxin]
- relative surface expression [2]: no alterations in the relative surface expression levels
